As usually defined, the EC50 is the concentration at which the effect is half-maximal.

The values below come from ChEMBL document CHEMBL3044799, “Biological activity of the succinate dehydrogenase inhibitor fluopyram against Botrytis cinerea and fungal baseline sensitivity” (Pest Manag Sci, 2012).

Test [1] has as its system Botrytis cinerea. The experiment in a line: Protective antifungal activity against Botryotinia fuckeliana inoculated in fungicide-applied strawberry fruit assessed as disease control efficacy at 100 ug AI/ml applied 96 hr prior-inoculation relative to control. It is filed as functional.
Test [2] deals with Botrytis cinerea. The experiment in a line: Protective antifungal activity against Botryotinia fuckeliana inoculated in fungicide-applied strawberry fruit assessed as disease control efficacy at 50 ug AI/ml applied 24 hr prior inoculation relative to control. The test is classed as functional.
Test [3] relates to Botrytis cinerea. The experiment in a line: Curative antifungal activity against Botryotinia fuckeliana inoculated in strawberry fruit assessed as disease severity measuring lesion diameter at 50 ug AI/ml applied 48 hr post-inoculation. The test is classed as functional.
The test system of test [4] is Botrytis cinerea. The experiment in a line: Antifungal activity against Botryotinia fuckeliana grown on succinate medium assessed as inhibition of germ tube growth at 5 ug/ml after 10 days. The test is classed as functional, organism-based.
Test [5] concerns Botrytis cinerea. The experiment in a line: Protective antifungal activity against Botryotinia fuckeliana inoculated in fungicide-applied strawberry fruit assessed as disease severity measuring lesion diameter at 10 ug AI/ml applied 96 hr prior-inoculation. It is filed as functional.
For test [6], the system named is Botrytis cinerea. The experiment in a line: Protective antifungal activity against Botryotinia fuckeliana inoculated in fungicide-applied strawberry fruit assessed as disease control efficacy at 50 ug AI/ml applied 48 hr prior inoculation relative to control. The test is classed as functional.
For test [7], the system named is Botrytis cinerea. The experiment in a line: Antifungal activity against Botryotinia fuckeliana grown on YBA agar assessed as inhibition of germ tube growth at 1 ug/ml after 10 days. It is filed as functional, organism-based.
For test [8], the system named is Botrytis cinerea. The experiment in a line: Protective antifungal activity against Botryotinia fuckeliana inoculated in fungicide-applied strawberry fruit assessed as disease control efficacy at 50 ug AI/ml applied 96 hr prior-inoculation relative to control. The test is classed as functional.
The subject of test [9] is Botrytis cinerea. The experiment in a line: Protective antifungal activity against Botryotinia fuckeliana inoculated in fungicide-applied strawberry fruit assessed as disease control efficacy at 10 ug AI/ml applied 48 hr prior inoculation relative to control. It is filed as functional.
In test [10] the test system is Botrytis cinerea. The experiment in a line: Protective antifungal activity against Botryotinia fuckeliana inoculated in fungicide-applied strawberry fruit assessed as disease severity measuring lesion diameter at 100 ug AI/ml applied 24 hr prior inoculation. The test is classed as functional.
The subject of test [11] is Botrytis cinerea. The experiment in a line: Protective antifungal activity against Botryotinia fuckeliana inoculated in fungicide-applied strawberry fruit assessed as disease severity measuring lesion diameter at 1 ug AI/ml applied 96 hr prior-inoculation. It is filed as functional.
Test [12] has as its system Botrytis cinerea. The experiment in a line: Antifungal activity against Botryotinia fuckeliana grown on YBA agar assessed as inhibition of mycelial growth at 5 ug/ml after 10 days. It is filed as functional, organism-based.
Test [13] has as its system Botrytis cinerea. The experiment in a line: Protective antifungal activity against Botryotinia fuckeliana inoculated in fungicide-applied strawberry fruit assessed as disease control efficacy at 10 ug AI/ml applied 24 hr prior inoculation relative to control. It is filed as functional.
The subject of test [14] is Botrytis cinerea. The experiment in a line: Curative antifungal activity against Botryotinia fuckeliana inoculated in strawberry fruit assessed as disease control efficacy at 50 ug AI/ml applied 24 hr post-inoculation relative to control. The test is classed as functional.
The subject of test [15] is Botrytis cinerea. The experiment in a line: Protective antifungal activity against Botryotinia fuckeliana inoculated in fungicide-applied strawberry fruit assessed as disease severity measuring lesion diameter at 1 ug AI/ml applied 48 hr prior inoculation. The test is classed as functional.
Test [16] concerns Botrytis cinerea. The experiment in a line: Curative antifungal activity against Botryotinia fuckeliana inoculated in strawberry fruit assessed as disease control efficacy at 100 ug AI/ml applied 96 hr post-inoculation relative to control. The test is classed as functional.
The subject of test [17] is Botrytis cinerea. The experiment in a line: Antifungal activity against Botryotinia fuckeliana obtained from cucumber isolate assessed as inhibition of spore germ tube growth. It is filed as functional, organism-based.
The test system of test [18] is Botrytis cinerea. The experiment in a line: Curative antifungal activity against Botryotinia fuckeliana inoculated in strawberry fruit assessed as disease severity measuring lesion diameter at 1 ug AI/ml applied 24 hr post-inoculation. The test is classed as functional.
Test [19] deals with Botrytis cinerea. The experiment in a line: Antifungal activity against Botryotinia fuckeliana obtained from tomato isolate assessed as inhibition of spore germ tube growth. The test is classed as functional, organism-based.
Test [20] has as its system Botrytis cinerea. The experiment in a line: Antifungal activity against Botryotinia fuckeliana assessed as inhibition of spore germination at 0.001 to 10 ug/ml after 10 days. It is filed as functional, organism-based.
Test [21] relates to Botrytis cinerea. The experiment in a line: Curative antifungal activity against Botryotinia fuckeliana inoculated in strawberry fruit assessed as disease control efficacy at 10 ug AI/ml applied 24 hr post-inoculation relative to control. It is filed as functional.
In test [22] the test system is Botrytis cinerea. The experiment in a line: Protective antifungal activity against Botryotinia fuckeliana inoculated in fungicide-applied strawberry fruit assessed as disease severity measuring lesion diameter at 100 ug AI/ml applied 96 hr prior-inoculation. The test is classed as functional.
For test [23], the system named is Botrytis cinerea. The experiment in a line: Curative antifungal activity against Botryotinia fuckeliana inoculated in strawberry fruit assessed as disease severity measuring lesion diameter at 1 ug AI/ml applied 96 hr post-inoculation. It is filed as functional.
Test [24] deals with Botrytis cinerea. The experiment in a line: Protective antifungal activity against Botryotinia fuckeliana inoculated in fungicide-applied strawberry fruit assessed as disease severity measuring lesion diameter at 10 ug AI/ml applied 24 hr prior inoculation. The test is classed as functional.

Molecules are shown by their SMILES. Converted amounts (≈) assume the structure as drawn. The source made the active and inactive calls. No cut-off for these calls is given here.

In the case of `O=C(NCCc1ncc(C(F)(F)F)cc1Cl)c1ccccc1C(F)(F)F` [FLUOPYRAM], the Efficacy in [1] was determined as 93.9%; in [2] it was 93.9%; in test [6], 87.7%; in test [8], 79.2%; in [9], 70.8%; in test [13], 77.2%. Further, the Efficacy in [14] was determined as 77.3%; in test [16], 62.5%; in test [21], 69.7%. The Activity was 3.2 mm in test [3]; 4.2 mm in [5]; 0 mm in [10]; 8.7 mm in test [11]; 8.6 mm in test [15]; 8.8 mm in [18]. In addition, the Activity in [22] amounted to 0.7 mm; in test [23], 11.8 mm; in [24], 4.2 mm. For the same compound, the “growth inhibition (GI)” value in test [4], in test [7], in test [12] and in [20] was “Active” in each case. The EC50 in [17] came out at 0.1 µg/mL (≈ 0.252 µM); in [19] it was 0.11 µg/mL (≈ 0.277 µM).
